Data taken from PubChem BioAssay AID1963837 (Molecular Pharmacology Branch, DTP, NCI, 2024).

Tested on: 843126-344-R-J1-PDC complex spheroid viability
Experiment: Anticancer human tumor 843126-344-R-J1-PDC patient-derived melanoma cell line growth inhibition [POLQ]
Conditions: for IC50: curve of first compound; for viability, T/C: stronger effect = lower value
Method: Multicellular complex tumor spheroid response to Polymerase (POL) inhibitors (novobiocin, ART-558, RP6685) in combination with a variety of drugs and investigational agents in selected tumor cell lines
The POL inhibitors (novobiocin, ART-558, and RP6685) were evaluated both individually and in combination with standard of care and investigational anticancer small molecules within a complex spheroid model of solid tumors. . Complex spheroids include a stromal component modeled by human endothelial cells (HUVEC) and fibroblasts modeled by human mesenchymal stem cells (MSCs). The concentration ranges selected for each drug and investigational agent were based upon clinically achievable concentrations if the clinical Cmax of the agent was known.
Compounds. The drugs and investigational agents: novobiocin (NSC847541), ART-558 (NSC835418), RP-6685 (NSC848927), peposertib (NSC802822), ceralasertib (NSC780249), elimusertib (NSC800525), camonsertib (NSC841442), AZD-1390 (NSC803789), olaparib (NSC753686), talazoparib (NSC767125), rucaparib (NSC756644), sotorasib (NSC818433), MRTX-1133 (NSC836407), SN-38 (NSC673596), topotecan (NSC609699), epotoside (NSC141540), doxorubicin (NSC123127), gemcitabine (NSC613327), 5-fluorouracil (NSC19893), paclitaxel (NSC125973), vemurafenib (NSC761431), MSA-2 (NSC828583), SN-011 (NSC837082), adavosertib (NSC754352), prexasertib (NSC758257), carboplatin (NSC241240) and oxaliplatin (NSC266046), were obtained from the National Cancer Institute (NCI) Developmental Therapeutics Program Chemical Repository (21). The FDA-approved anticancer drug set is available from the Developmental Therapeutics Program at https://dtp.cancer.gov/organization/dscb/obtaining/. […] The stock solutions were prepared in dimethyl sulfoxide (DMSO, Sigma-Aldrich, St. Louis, MO, cat. D2650), except for the platinum compounds which were prepared in saline (Quality Biological, Gaithersburg, MD, cat. 114-055-101), at 800-fold the tested concentration and stored at -70 degrees C prior to their use. All drugs and investigational agents were tested over a range starting from a high concentration at or near the clinical Cmax and decreasing in half-log increments. If the clinical Cmax for an agent had not been determined, the highest concentration tested was 10 microM, except for SN-38, which was tested at a high concentration of 1 microM.
Cell Culture. All cells were maintained in an incubator at 37 degrees C and 5% CO2 with 95% humidity. The PDC lines were cultured according to standard operating procedures established by the NCI PDMR (https://pdmr.cancer.gov). Table 3 of the manuscript, lists the cell lines along with the number of the three cell types plated to form the mct-spheroids and media for tumor cell growth. After thawing, all PDC lines, except 997537-175-T-J1-PDC and 415267-285-R-J2-PDC, were cultured in Matrigel-coated flasks prepared with a working solution of 1X Ham's F-12 nutrient mix, without supplementation (Thermo Fisher Scientific, cat. 11765054), 100 U/mL penicillin-streptomycin (Thermo Fisher Scientific, cat. 15140122), and 2.5% Matrigel (Corning Inc., Corning, NY, cat. 354248) for the first three passages. The two PDC lines 997537-175-T-J1-PDC and 415267-285-R-J2-PDC were cultured on uncoated flasks. The 857933-349-R-J2-PDC line was cultured in 6C/Colon 1B media containing advanced DMEM/F-12 (Thermo Fisher Scientific, cat. 12634028), 10 mM HEPES (Thermo Fisher Scientific, cat. 15630080), 1X GlutaMAX supplement (Thermo Fisher Scientific, cat. 35050061), 0.1 mg/mL primocin (InvivoGen, San Diego, CA, cat. ant-pm-2), 10% defined fetal bovine serum, heat inactivated (HyClone Laboratories Inc., Logan, UT, cat. SH30070.03HI), 50% L-WRN conditioned media (ATCC, cat. CRL-3276), 1.25 mM N-Acetyl-L-cysteine (Sigma-Aldrich, cat. A9165), 10 mM nicotinamide (Sigma-Aldrich, cat. N0636), 1X B-27 supplement (Thermo Fisher Scientific, cat. 17504044), 1X N-2 supplement (Thermo Fisher Scientific, cat. […]

[1] = second compound 0.0316 µM, first compound 0.0316 µM
[2] = second compound 0.0316 µM, first compound 0.1 µM
[3] = second compound 0.0316 µM, first compound 0.316 µM
[4] = second compound 0.0316 µM, first compound 1 µM
[5] = second compound 0.0316 µM, first compound 3.16 µM
[6] = second compound 0.0316 µM, first compound 10 µM
[7] = second compound 0.1 µM, first compound 0.0316 µM
[8] = second compound 0.1 µM, first compound 0.1 µM
[9] = second compound 0.1 µM, first compound 0.316 µM
[10] = second compound 0.1 µM, first compound 1 µM
[11] = second compound 0.1 µM, first compound 3.16 µM
[12] = second compound 0.1 µM, first compound 10 µM
[13] = second compound 0.316 µM, first compound 0.0316 µM
[14] = second compound 0.316 µM, first compound 0.1 µM
[15] = second compound 0.316 µM, first compound 0.316 µM
[16] = second compound 0.316 µM, first compound 1 µM
[17] = second compound 0.316 µM, first compound 3.16 µM
[18] = second compound 0.316 µM, first compound 10 µM
[19] = second compound 1 µM, first compound 0.0316 µM
[20] = second compound 1 µM, first compound 0.1 µM
[21] = second compound 1 µM, first compound 0.316 µM
[22] = second compound 1 µM, first compound 1 µM
[23] = second compound 1 µM, first compound 3.16 µM
[24] = second compound 1 µM, first compound 10 µM
[25] = second compound 3.16 µM, first compound 0.0316 µM
[26] = second compound 3.16 µM, first compound 0.1 µM
[27] = second compound 3.16 µM, first compound 0.316 µM
[28] = second compound 3.16 µM, first compound 1 µM
[29] = second compound 3.16 µM, first compound 3.16 µM
[30] = second compound 3.16 µM, first compound 10 µM
[31] = second compound 10 µM, first compound 0.0316 µM
[32] = second compound 10 µM, first compound 0.1 µM
[33] = second compound 10 µM, first compound 0.316 µM
[34] = second compound 10 µM, first compound 1 µM
[35] = second compound 10 µM, first compound 3.16 µM
[36] = second compound 10 µM, first compound 10 µM
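Wherever viability, T/C is given: spheroids exposed to drugs for seven days before readout.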

## CC1COCCN1c1cc(C2(S(C)(=N)=O)CC2)nc(-c2ccnc3[nH]ccc23)n1 (stereo unspecified) + Nc1ccc(C#CCN(C(=O)Cc2ncc(C(F)(F)F)cc2C(F)(F)F)c2ccc(F)cc2)nn1
Second compound 0.0316 µM
  IC50: > 10 µM
Second compound 0.1 µM
  IC50: > 10 µM
Second compound 0.316 µM
  IC50: 9.88 µM
Second compound 1 µM
  IC50: > 10 µM
Second compound 3.16 µM
  IC50: > 10 µM
Second compound 10 µM
  IC50: > 10 µM
[1]
  viability, T/C: 101%
[2]
  viability, T/C: 84.8%
[3]
  viability, T/C: 86.6%
[4]
  viability, T/C: 76.9%
[5]
  viability, T/C: 72.7%
[6]
  viability, T/C: 51.6%
[7]
  viability, T/C: 84.8%
[8]
  viability, T/C: 90.2%
[9]
  viability, T/C: 88.8%
[10]
  viability, T/C: 103%
[11]
  viability, T/C: 76.1%
[12]
  viability, T/C: 55.8%
[13]
  viability, T/C: 88.4%
[14]
  viability, T/C: 92.1%
[15]
  viability, T/C: 82.3%
[16]
  viability, T/C: 77.5%
[17]
  viability, T/C: 70%
[18]
  viability, T/C: 49.2%
[19]
  viability, T/C: 96.2%
[20]
  viability, T/C: 92.8%
[21]
  viability, T/C: 86.3%
[22]
  viability, T/C: 90.5%
[23]
  viability, T/C: 76.3%
[24]
  viability, T/C: 51.8%
[25]
  viability, T/C: 89.9%
[26]
  viability, T/C: 84%
[27]
  viability, T/C: 89%
[28]
  viability, T/C: 86.1%
[29]
  viability, T/C: 69.8%
[30]
  viability, T/C: 53.8%
[31]
  viability, T/C: 94.6%
[32]
  viability, T/C: 84%
[33]
  viability, T/C: 81.5%
[34]
  viability, T/C: 75.1%
[35]
  viability, T/C: 65.2%
[36]
  viability, T/C: 51.8%

## Nc1ccn(C2OC(CO)C(O)C2(F)F)c(=O)n1 (stereo unspecified) + COC1C(OC(N)=O)C(O)C(Oc2ccc3c(O)c(NC(=O)c4ccc(O)c(CC=C(C)C)c4)c(=O)oc3c2C)OC1(C)C
Second compound 0.0316 µM
  IC50: < 0.0316 µM
Second compound 0.1 µM
  IC50: < 0.0316 µM
Second compound 0.316 µM
  IC50: < 0.0316 µM
Second compound 1 µM
  IC50: < 0.0316 µM
Second compound 3.16 µM
  IC50: < 0.0316 µM
Second compound 10 µM
  IC50: < 0.0316 µM
[1]
  viability, T/C: 33.5%
[2]
  viability, T/C: 34.9%
[3]
  viability, T/C: 36.8%
[4]
  viability, T/C: 36.1%
[5]
  viability, T/C: 41.7%
[6]
  viability, T/C: 34.7%
[7]
  viability, T/C: 41.3%
[8]
  viability, T/C: 36.5%
[9]
  viability, T/C: 34.9%
[10]
  viability, T/C: 37.8%
[11]
  viability, T/C: 37.3%
[12]
  viability, T/C: 33.7%
[13]
  viability, T/C: 38.6%
[14]
  viability, T/C: 36.4%
[15]
  viability, T/C: 39.4%
[16]
  viability, T/C: 32.9%
[17]
  viability, T/C: 36.9%
[18]
  viability, T/C: 33.4%
[19]
  viability, T/C: 38.9%
[20]
  viability, T/C: 36%
[21]
  viability, T/C: 39.3%
[22]
  viability, T/C: 31.7%
[23]
  viability, T/C: 40%
[24]
  viability, T/C: 35.7%
[25]
  viability, T/C: 43.5%
[26]
  viability, T/C: 34.6%
[27]
  viability, T/C: 38%
[28]
  viability, T/C: 30.8%
[29]
  viability, T/C: 39.5%
[30]
  viability, T/C: 31.2%
[31]
  viability, T/C: 38.4%
[32]
  viability, T/C: 37.8%
[33]
  viability, T/C: 38%
[34]
  viability, T/C: 32.8%
[35]
  viability, T/C: 32%
[36]
  viability, T/C: 32%

## CCc1cc2c(N3CCc4c(cc(Cn5ccnc5)cc4-c4cn(C)nc4C(F)(F)F)C3=O)ccnc2c(OC)n1 + Cc1cccc(N(C)C(=O)C2C(O)CCN2c2nc(C)cc(C(F)(F)F)c2C#N)c1
Second compound 0.0316 µM
  IC50: > 10 µM
Second compound 0.1 µM
  IC50: > 10 µM
Second compound 0.316 µM
  IC50: > 10 µM
Second compound 1 µM
  IC50: > 10 µM
Second compound 3.16 µM
  IC50: > 10 µM
Second compound 10 µM
  IC50: > 10 µM
[1]
  viability, T/C: 91.3%
[2]
  viability, T/C: 79.8%
[3]
  viability, T/C: 80.6%
[4]
  viability, T/C: 83.3%
[5]
  viability, T/C: 69.9%
[6]
  viability, T/C: 61.4%
[7]
  viability, T/C: 90%
[8]
  viability, T/C: 88.4%
[9]
  viability, T/C: 87.1%
[10]
  viability, T/C: 90%
[11]
  viability, T/C: 72.3%
[12]
  viability, T/C: 60.4%
[13]
  viability, T/C: 99.6%
[14]
  viability, T/C: 74.9%
[15]
  viability, T/C: 86%
[16]
  viability, T/C: 78.5%
[17]
  viability, T/C: 69%
[18]
  viability, T/C: 61.2%
[19]
  viability, T/C: 101%
[20]
  viability, T/C: 77.3%
[21]
  viability, T/C: 86.3%
[22]
  viability, T/C: 73.5%
[23]
  viability, T/C: 68%
[24]
  viability, T/C: 55.3%
[25]
  viability, T/C: 100%
[26]
  viability, T/C: 84.8%
[27]
  viability, T/C: 79.3%
[28]
  viability, T/C: 72.4%
[29]
  viability, T/C: 69.3%
[30]
  viability, T/C: 63.1%
[31]
  viability, T/C: 88.2%
[32]
  viability, T/C: 92.2%
[33]
  viability, T/C: 75.5%
[34]
  viability, T/C: 68.8%
[35]
  viability, T/C: 70.7%
[36]
  viability, T/C: 64.4%
